Columns and labels:
CDD spheroids = assay: HT cell viability (CellTiter Glo 3D Cell Viability Assay); type: cell-based, human; settings: 1 μM, 3 weeks treatment, CDD spheroids at 6 weeks of differentiation
Description: HT cell viability. To determine any cytotoxic effect of the drug treatment on the neural culture, the CellTiter Glo 3D Cell Viability Assay (Promega, Madison, WI, USA) was performed according to the manufacturer's instructions. Briefly, following the intracellular calcium oscillation recording, the spheroids were extensively washed with PBS for removal of the calcium dye. Next, cells were incubated with CellTiter Glo Reagent for 30 min at room temperature and the number of viable cells was estimated based on the amount of ATP present in the culture. The luminescent signal was captured using a PHERAstar FSX Microplate Reader (BMG Labtech, Ortenberg, Germany).
Next, a unique library of 1112 neuronal signaling compounds was screened by chronically treating 3-week-old CDD spheroids in triplicate at 1 μM for 3 weeks (FIG. 5D; FIG. 10). The calcium peaks' baseline features were determined solely in the presence of each vehicle (DMSO or water) to avoid any confounding effect on the oscillatory activity (FIG. 5E and FIG. 10A-D). Similarly, the result from each compound was normalized against its vehicle control (DMSO or water). To detect potential toxic effects of specific drugs, spheroid size and cell viability were monitored (FIG. 5F-G).

CDD spheres = assay: Cellular migration after drug treatment (outward radial migration from plated spheres); type: cell-based, human; settings: 1 μM, spheres treated for 3 weeks, migration evaluated 8 days after plating
Description: Cellular migration. Three-week old spheres were treated for 3 additional weeks with 1 μM of selected compounds. Cellular migration was evaluated 8 days after spheres were plated onto poly-L-ornithine/laminin-coated plates. The outward radial migration was measured using NeuronJ plugin on the Fiji platform. Next, these lead compounds were investigated for their ability to ameliorate CDD cellular phenotype. Following a similar pharmacological strategy, spheres were treated for 3 weeks, and cellular migration was evaluated after plating.

[1] = system: CDD spheroids (cortical neurons and astrocytes derived from human iPSCs); assay: HT calcium oscillation assay in CDD spheroids (high throughput screening, Scalar Perturbation and Parameter Recovery analysis); type: cell-based; settings: for SP ranking (Scalar Perturbation): smaller SP = closer to control; for EC50: Homo sapiens, iPSC, six concentrations 0.0003 to 1 μM, nonlinear regression fit, n=4 spheroids per concentration, read-out: EC50 (dose-response of Parameter Recovery percentage)
Excerpt: CDD High Throughput Screening (HTS) platform development. An HTS platform for CDD was developed. Briefly, the HTS system relies on spheroids derived from human iPSCs that comprise a balanced culture of cortical neurons and astrocytes. These spheroids display quantifiable, robust and uniform spontaneous calcium oscillations which correlated with synchronous neuronal activity. The CDD HTS platform uses cells derived from CDD1 and Controll lines.
Chemical library and drug treatment. The compound library used in this study comprises a unique collection of 1112 compounds with biological activity used for neurologic research and associated assays; of which two-thirds are FDA-approved drugs (SelleckChem, Houston, TX, USA). Three-week-old CDD spheroids received chronic treatment three-times per week, during three weeks. All compounds were tested at 1 μM in three technical replicates; vehicle controls (DMSO or water) were included in multiple replicates. The dose-response assay comprehended six concentrations ranging from 0.0003 to 1 μM, in four technical replicates.
HT Calcium oscillation assay. To assess the intracellular calcium oscillations in CDD and control cortical spheroids, cells were incubated with the FLIPR Calcium 6 Kit (Molecular Devices LLC, San Jose, CA, USA). Briefly, cells were pre-loaded with Calcium 6 Dye for 2 h prior to the recording. The dye interacts with intracellular calcium and changes in fluorescence occur according to increased or decreased calcium concentration. The peaks observed correlate with synchronous neural activity in the spheroids. The kinetics of intracellular calcium oscillations was determined using the FLIPR Tetra High-Throughput Cellular Screening System (Molecular Devices LLC): the fluorescence intensity was set at 515-575 nm following excitation at 470-495 nm for 10 min at a frequency of 3 Hz; the exposure time per read was 0.4 s, the gain was set to 30, and the excitation intensity was set to 40%. The instrument temperature was kept at 37° C.
HT screening analysis. A multiparametric analysis of representative descriptors of the intracellular calcium oscillation was performed. The features used include: 1. Peak count; 2. Average (Avg) Peak Height (Amplitude); 3. Peak Height standard deviation (s.d.); 4. Avg Peak Width, 5. Peak Width s.d.; 6. Avg Peak Spacing; 7. Peak Spacing s.d.; 8. Avg Peak Rise Time; 9. Peak Rise Time s.d.; 10. Avg Peak Decay Time; 11. Peak Decay Time s.d.; 12. Class 1 Peak Count; 13. Class 2 Peak Cound; 14. Class 3 Peak Count; 15. Singular Peak Count; 16. Irregular Peak Count, and 17. Subpeak Count. For peak classification, Class 1 Peak display 100-66% of max peak height, while Class 2 and Class 3, 66-33% and 33-15%, respectively. To determine the Scalar Perturbation, the data was normalized by dividing raw parameters by the median values of controls from the same plate. Each parameter was standardized by z-score of normalized and log-transformed control values. Next, the Euclidean norm between selected parameters was calculated and averaged the Scalar Perturbation score among replicates. In the Parameter Recovery, max/min boundaries from vehicle Control were determined from corresponding plate. For each replicate, we summed the number of parameter found to be within the max/min boundaries of the Control. Next, for each replicate we divided the sum of the recovered parameter by the total number of parameters and established the percentage of parameters recovered to the Control boundaries and, averaged Parameter Recovery percentages between compound replicates.
Next, a unique library of 1112 neuronal signaling compounds was screened by chronically treating 3-week-old CDD spheroids in triplicate at 1 μM for 3 weeks (FIG. 5D; FIG. 10). The calcium peaks' baseline features were determined solely in the presence of each vehicle (DMSO or water) to avoid any confounding effect on the oscillatory activity (FIG. 5E and FIG. 10A-D). […]

[2] = system: Cdkl5 knockout mouse neurons; settings: cited from earlier work
[3] = 1112 compounds screened at 1 μM, chronic treatment for 3 weeks, 3-week-old CDD spheroids

EC50 [1] [µM] | Structure (SMILES) | effect on cell viability (CDD spheroids) | rescue of outward radial cellular migration defects in CDD (CDD spheres) | SP ranking (Scalar Perturbation) [1, 3] | PR ranking (Parameter Recovery) ([1]; 1112 compounds screened at 1 μM, chronic treatment for 3 weeks, 3-week-old CDD spheroids, higher PR = closer to control) | restoration of CDKL5-dependent synaptic defects [2]
 | O=C(O[C@H]1CN2CCC1CC2)N1CCc2ccccc2[C@@H]1c1ccccc1 [Solifenacin] | no effect on cell viability | able to rescue outward radial cellular migration defects | 28 |  | 
 | COc1ccc2c(c1)[nH]c1c(C)nccc12 [Harmine] | excluded from the list of top candidates due to its effect on cell survival |  | first | second | restore CDKL5-dependent synaptic defects
 | N#Cc1ccc2[nH]c(O)c(-c3ccc(CN4CCOCC4)cn3)c2c1 [AZD1080] | no effect on cell viability | able to rescue outward radial cellular migration defects | 12 |  | 
0.041 | COc1cc2c(cc1OC)CC(=O)N(CCCN(C)C[C@H]1Cc3cc(OC)c(OC)cc31)CC2 [Ivabradine] | no effect on cell viability | able to rescue outward radial cellular migration defects | 10 |  | 
0.883 | C[C@H](NC(=O)CCC(F)(F)F)C(=O)N[C@@H]1C(=O)N(CCO)c2ncccc2-c2ccccc21 [Crenigacestat] | no effect on cell viability | able to rescue outward radial cellular migration defects | 5 |  | 
